From patent publication US4045556A, “Dipeptide derivatives, process for manufacture and pharmaceutical preparations” (priority 1974, dated 1977)

Key:
Assay type in all cases: in vivo
[1] = test system: reserpine-pretreated mice (hypomobility); assay: test of motility (reserpine hypomotility); design: motility measurement: unit not given here; settings: for motility measurement: mice, reserpine 5 mg/kg i.p. 10-20 h before, photocell activity cage; for stimulation of the mobility of animals: reserpine-pretreated mice, result in words
Procedure: Test mice were injected ten to twenty hours before the experiment with 5 mg of reserpine per kilogram of body weight, intraperitoneally. The animals developed until the beginning of the experiment a marked hypomobility. The test substances (TRH, A, B and C) are then injected intraperitoneally to groups of ten mice. Another group of ten mice pretreated with reserpine only acted as control group. The movement and activity of the animals are determined, measured and registered, the animals being confined in a photocell activity cage.
The average motility measurement for the reserpine pretreated control animals is 14.2, the untreated mice is 123.

[2] = test system: toxicity of amphetamine in mice; assay: amphetamine group toxicity (mortality rate); settings: 15 min later amphetamine 7 mg/kg
Procedure: It is known that the toxicity of amphetamine is increased by administration of anti-depressive compounds, especially those that have a central nervous system stimulating activity, this activity being evidenced by an increased mortality in the test.
The test substances were intraperitoneally injected and fifteen minutes later the test animals were administered amphetamine in a dose of 7 mg per kilogram. […] Those animals which were treated only with amphetamine, as control, were still all alive at that time.

thyrotropin release = thyrotropin release (endocrinological properties), standard tests; settings: comparison with TRH
Description: The endocrinological properties of typical compounds of the invention, such as L-2-oxo-imidazolidine-4-carbonyl-L-histidyl-L-prolinamide-dihydrate (Compound A) and of orotyl-L-histidyl-L-prolinamide-dihydrate (Compound B) are compared to that of TRH, the thyrotropin-releasing hormone.

[3] = test system: lowering of body temperature caused by reserpine in mice; assay: body temperature test (reserpine hypothermy); design: sum of the differences between the measured values and the initial temperature: unit not given here; settings: for sum of the differences between the measured values and the initial temperature: reserpine 8 mg/kg i.p. 24 h before, rectal temperature every 20 min over 3 h; for effectiveness in counteracting the lowering of body temperature caused by reserpine, compared with TRH: result in words
Procedure: A series of standard tests were run.
Mice are intraperitoneally injected with 8 mg of reserpine per kilogram of body weight with a solution of reserpine, in 5% of ascorbic acid. After twenty-four hours the temperature of the animal has considerably dropped to a temperature, hereinafter designated as the "initial temperature", which is the reference temperature against which the effect of the compounds is measured. Then the test substance is injectd intraperitoneally. Thereafter, every twenty minutes, the temperature (rectal) is recorded over three hours. The sum of the differences between the measured values and the initial temperature are noted. These are reported below for different dosages.

rats [4] = assay: wet dog shaking test; settings: 25 mg/kg i.p.
Procedure: The stimulant activity of Compound B is also shown in the "wet dog shaking" test of rats (standard test listed below).
Compound B was injected intraperitoneally and the animal activity is periodically observed. The effect of the substance is measured by the average number of shaking movements per minute. The dosage applied is 25 mg of substance/kilogram of body weight.

rats [5] = assay: LD50 in rats
Procedure: (§1) For instance with Substance B the following values of the LD50 were determined: […]

mice = assay: LD50 in mice
Procedure: as §1

[6] = test system: central nervous system of test animals; assay: central stimulation action in pharmacological tests; settings: equal doses of TRH and compound
Description: The compounds of formula I may be administered orally or parenterally. Their effects are observed quickly. For instance, on parenteral administration the effects occur already after ten minutes.
The most remarkable effects of the new products indicated in pharmacological tests is a central stimulation action.

Work on `NC(=O)[C@@H]1CCCN1C(=O)[C@H](Cc1c[nH]cn1)NC(=O)C1CSCC(=O)N1.O` (stereo partly drawn) [Compound C, L-5-oxo-thiomorpholine-3-carbonyl-L-histidyl-L-prolinamide-hydrate] yielded a motility measurement ([1]; substance 3 mg/kg i.p.) of 51.0, a motility measurement ([1]; substance 5 mg/kg i.p.) of 72.0 and a motility measurement ([1]; substance 10 mg/kg i.p.) of 69.0. The “stimulation of the mobility of animals” value [1] was “stimulate the mobility of animals”, the “number of dead mice (in percent) sixty minutes after amphetamine” value ([2]; substance 10 mg/kg i.p.) was 60% and the “number of dead mice (in percent) sixty minutes after amphetamine” value ([2]; substance 20 mg/kg i.p.) was 70%. The “number of dead mice (in percent) sixty minutes after amphetamine” value ([2]; substance 50 mg/kg i.p.) was 70%, the “number of dead mice (in percent) sixty minutes after amphetamine” value ([2]; substance 100 mg/kg i.p.) was 70% and the “number of dead mice (in percent) sixty minutes after amphetamine” value ([2]; substance 200 mg/kg i.p.) was 90%.

For `NC(=O)[C@@H]1CCCN1C(=O)[C@H](Cc1c[nH]cn1)NC(=O)c1cc(=O)[nH]c(=O)[nH]1.O.O` [Compound B, orotyl-L-histidyl-L-prolinamide-dihydrate], the “dose required relative to TRH to obtain an equally marked thyrotropin release” value (thyrotropin release) was “ten-times greater dose than TRH”, the “sum of the differences between the measured values and the initial temperature” value ([3]; substance 2 mg/kg i.p.) was 34.6 and the “sum of the differences between the measured values and the initial temperature” value ([3]; substance 5 mg/kg i.p.) was 42.3. The “sum of the differences between the measured values and the initial temperature” value ([3]; substance 10 mg/kg i.p.) was 55.3, the “sum of the differences between the measured values and the initial temperature” value ([3]; substance 20 mg/kg i.p.) was 67.1 and the “effectiveness in counteracting the lowering of body temperature caused by reserpine, compared with TRH” value [3] was “marketly more effective than TRH”. The motility measurement ([1]; substance 3 mg/kg i.p.) was 98.0, the motility measurement ([1]; substance 5 mg/kg i.p.) was 106.0 and the motility measurement ([1]; substance 10 mg/kg i.p.) was 104.0. The “stimulation of the mobility of animals” value [1] was “stimulate the mobility of animals”, the “number of dead mice (in percent) sixty minutes after amphetamine” value ([2]; substance 10 mg/kg i.p.) was 70% and the “number of dead mice (in percent) sixty minutes after amphetamine” value ([2]; substance 20 mg/kg i.p.) was 55%. The “number of dead mice (in percent) sixty minutes after amphetamine” value ([2]; substance 50 mg/kg i.p.) was 75%, the “number of dead mice (in percent) sixty minutes after amphetamine” value ([2]; substance 100 mg/kg i.p.) was 90% and the “number of dead mice (in percent) sixty minutes after amphetamine” value ([2]; substance 200 mg/kg i.p.) was 80%. The “average number of shaking movements per minute” value (shortened to “average number … per minute”) (rats [4]; 15 minutes after application) was 5.25, the “average number … per minute” value (rats [4]; 30 minutes after application) was 3.8 and the “average number … per minute” value (rats [4]; 45 minutes after application) was 3.2. For the same compound, the “average number … per minute” value (rats [4]; 60 minutes after application) was 2.15, the “average number … per minute” value (rats [4]; 75 minutes after application) was 2.1 and the “average number … per minute” value (rats [4]; 90 minutes after application) was 1.55. For the same compound, the “average number … per minute” value (rats [4]; 105 minutes after application) was 1.05, the “average number … per minute” value (rats [4]; 120 minutes after application) was 0.6 and the “average number … per minute” value (rats [4]; 135 minutes after application) was 0.3. The “duration of action compared with TRH” value (rats [4]; result in words) was “longer acting than TRH”, the LD50 (rats [5]; intramuscularly) was over 4000 mg/kg and the LD50 (rats [5]; intraveneously) was 1000 mg/kg. The LD50 (rats [5]; orally) was over 1000 mg/kg, the LD50 (mice; intramuscularly) was over 4000 mg/kg and the LD50 (mice; intraveneously) was 1200 mg/kg. For the same compound, the LD50 (mice; orally) was over 1000 mg/kg, the “duration of effect relative to TRH” value [6] was “several times longer” and the “strength of stimulating effect on the central nervous system relative to TRH” value [6] was “about five times stronger”.

In the case of `NC(=O)[C@@H]1CCCN1C(=O)[C@H](Cc1c[nH]cn1)NC(=O)[C@@H]1CCC(=O)N1` [TRH, pyroglutamyl-histidyl-proline amide, reference compound], the “sum of the differences between the measured values and the initial temperature” value ([3]; substance 2 mg/kg i.p.) is reported as 18.4, the “sum of the differences between the measured values and the initial temperature” value ([3]; substance 5 mg/kg i.p.) is reported as 16.5 and the “sum of the differences between the measured values and the initial temperature” value ([3]; substance 10 mg/kg i.p.) is reported as 27.9. For the same compound, the “sum of the differences between the measured values and the initial temperature” value ([3]; substance 20 mg/kg i.p.) was 32.8, the motility measurement ([1]; substance 3 mg/kg i.p.) was 0.9 and the motility measurement ([1]; substance 5 mg/kg i.p.) was 1.2. The motility measurement ([1]; substance 10 mg/kg i.p.) was 44.0, the “number of dead mice (in percent) sixty minutes after amphetamine” value ([2]; substance 10 mg/kg i.p.) was 20% and the “number of dead mice (in percent) sixty minutes after amphetamine” value ([2]; substance 20 mg/kg i.p.) was 25%. The “number of dead mice (in percent) sixty minutes after amphetamine” value ([2]; substance 50 mg/kg i.p.) was 55%, the “number of dead mice (in percent) sixty minutes after amphetamine” value ([2]; substance 100 mg/kg i.p.) was 65% and the “number of dead mice (in percent) sixty minutes after amphetamine” value ([2]; substance 200 mg/kg i.p.) was 65%. For the same compound, the “average number … per minute” value (rats [4]; 15 minutes after application) was 2.9 and the “average number … per minute” value (rats [4]; 30 minutes after application) was 1.0.

In the case of `NC(=O)[C@@H]1CCCN1C(=O)[C@H](Cc1c[nH]cn1)NC(=O)C1CNC(=O)N1.O.O` (stereo partly drawn) [Compound A, L-2-oxo-imidazolidine-4-carbonyl-L-histidyl-L-prolinamide-dihydrate], the “dose required relative to TRH to obtain an equally marked thyrotropin release” value (thyrotropin release) is reported as “ten-times greater dose than TRH”, the “sum of the differences between the measured values and the initial temperature” value ([3]; substance 2 mg/kg i.p.) is reported as 20.8 and the “sum of the differences between the measured values and the initial temperature” value ([3]; substance 5 mg/kg i.p.) is reported as 26.1. For the same compound, the “sum of the differences between the measured values and the initial temperature” value ([3]; substance 10 mg/kg i.p.) was 32.8, the “sum of the differences between the measured values and the initial temperature” value ([3]; substance 20 mg/kg i.p.) was 40.1 and the “effectiveness in counteracting the lowering of body temperature caused by reserpine, compared with TRH” value [3] was “marketly more effective than TRH”. It also gave a motility measurement ([1]; substance 3 mg/kg i.p.) of 17.0, a motility measurement ([1]; substance 5 mg/kg i.p.) of 21.7 and a motility measurement ([1]; substance 10 mg/kg i.p.) of 94.1. For the same compound, the “stimulation of the mobility of animals” value [1] was “stimulate the mobility of animals”, the “number of dead mice (in percent) sixty minutes after amphetamine” value ([2]; substance 10 mg/kg i.p.) was 15% and the “number of dead mice (in percent) sixty minutes after amphetamine” value ([2]; substance 20 mg/kg i.p.) was 40%. The “number of dead mice (in percent) sixty minutes after amphetamine” value ([2]; substance 50 mg/kg i.p.) was 60%, the “number of dead mice (in percent) sixty minutes after amphetamine” value ([2]; substance 100 mg/kg i.p.) was 50% and the “number of dead mice (in percent) sixty minutes after amphetamine” value ([2]; substance 200 mg/kg i.p.) was 85%.
